Source: patent US20110112097A1, “Substituted imidazoline-2,4-diones, process for preparation thereof, medicaments comprising these compounds and use thereof” (SANOFI-AVENTIS, priority 2008, published 2011)
Counter-ions that a name gives are not always drawn. Like-named read-outs stand apart in the source and are kept apart here.

What was measured:
hCB1R [1] = target: T1, hCB1R (Homo sapiens, UniProt P21554); assay: Binding to the CB1 receptor ([3H]-SR141716A displacement)
Method: Binding to the CB1 Receptor:
Test compounds: The compounds (3 μl, 10 mM, 100% DMSO), pipetted into 96-well PP microtiter plates, were diluted with 27 μl of 100% DMSO (dimethyl sulfoxide). Proceeding from this solution, further 3-fold dilution steps were undertaken by transferring 10 μl in each case to a new PP microtiter plate and adding a further 20 μl of 100% DMSO. In each case 6 μl of these solutions were transferred into new 96-well PP microtiter plates and made up with 144 μl of assay buffer. The end concentrations ranged from 10 μM to 0.005 μM.
Negative control: AM 251, dissolved in assay buffer with 1% DMSO, was added to the dilution series in the microtiter plates as a control. The end concentration was 1 μM.
Blank control: assay buffer with 1% DMSO was added to the dilution series of the microtiter plates as a blank control.
Summary of the Assay Parameters:
High control: ^3H binding without addition of the compound Low control: ^3H binding in the presence of 1 μM AM 251
The values were calculated using the corrected raw data.
The values reported were obtained as average values of a double determination. The IC50 values were calculated from the measurements with the program Xlfit, formula 205. Ki values were obtained from the IC50 and Kd values utilizing the Cheng-Prusoff equation:
[formula] • Literature: Cheng, Y.-C., and Prusoff, W. H. (1973) Biochem. Pharmacol 22, 3099-3108

hCB1R [2] = target: T1, hCB1R; assay: In vitro functional assay with recombinant cells (FLIPR, intracellular Ca2+), CB1; assay type: cell-based; parameters: expressed in transfected cells; host or cells: HEK293
Method: (§1) In vitro functional assays with recombinant cells:
(§2) Function-testing assays were performed by means of the FLIPR technique (“Fluorometric Imaging Plate Reader”, Molecular Devices Corp.).
(§3) To this end, ligand-induced changes in the intracellular concentration of Ca^2+ in recombinant HEK293 cells, which expressed both a cannabinoid receptor (CB1 or CB2) and G-protein Galpha16, were determined. For the studies, cells were sown into 96-well microtiter plates (60 000 cells/well) and left to grow overnight. The medium was removed and the cells were incubated in buffer which contained the fluorescent dye Fluo-4. After this loading with dye, the cells were washed, test substance was added dissolved in buffer, the mixture was incubated for 20 minutes, a known cannabinoid receptor agonist as a reference agonist was added in buffer and, finally, the changes in the intracellular Ca^2+ concentration were measured in the FLIPR unit.

hCB2R = target: T2, hCB2R (Homo sapiens, UniProt P34972); assay: In vitro functional assay with recombinant cells (FLIPR, intracellular Ca2+), CB2; assay type: cell-based; conditions: recombinant HEK293 cells expressing CB2 and G-protein Galpha16; 20 min preincubation, then reference agonist; Ca2+ change (Fluo-4)
T2 construct: expressed in transfected cells; host or cells: HEK293
T2 sequence (P34972 whole entry): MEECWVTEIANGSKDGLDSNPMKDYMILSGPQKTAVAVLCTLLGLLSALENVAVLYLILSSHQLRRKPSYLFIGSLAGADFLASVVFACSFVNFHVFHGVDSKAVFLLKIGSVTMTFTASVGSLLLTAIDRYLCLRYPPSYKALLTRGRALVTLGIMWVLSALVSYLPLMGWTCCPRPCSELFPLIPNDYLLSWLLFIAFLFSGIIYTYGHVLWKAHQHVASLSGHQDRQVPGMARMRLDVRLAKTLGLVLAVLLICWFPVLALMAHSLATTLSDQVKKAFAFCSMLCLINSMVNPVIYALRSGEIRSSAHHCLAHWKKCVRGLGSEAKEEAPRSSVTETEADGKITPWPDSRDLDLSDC
Method: as §1, §2, §3
Results were presented as the percentage change relative to the control (0%: analogous experiment without test substance and without reference agonist, i.e. only with buffer; 100%: analogous experiment without test substance, but with reference agonist in excess), and used to calculate dose/action curves, and IC50 values were determined

[3] = CHO-K1/cannabinoid CB1 protein 2 μg/well, [3H]-SR141716A 0.5 nM, Ki from IC50 by Cheng-Prusoff, average of double determination, read-out: hCB1R, binding Ki
[4] = recombinant HEK293 cells expressing CB1 and G-protein Galpha16, 20 min preincubation, then reference agonist, Ca2+ change (Fluo-4), read-out: hCB1R: FLIPR, IC50

T1 sequence (P21554 whole entry): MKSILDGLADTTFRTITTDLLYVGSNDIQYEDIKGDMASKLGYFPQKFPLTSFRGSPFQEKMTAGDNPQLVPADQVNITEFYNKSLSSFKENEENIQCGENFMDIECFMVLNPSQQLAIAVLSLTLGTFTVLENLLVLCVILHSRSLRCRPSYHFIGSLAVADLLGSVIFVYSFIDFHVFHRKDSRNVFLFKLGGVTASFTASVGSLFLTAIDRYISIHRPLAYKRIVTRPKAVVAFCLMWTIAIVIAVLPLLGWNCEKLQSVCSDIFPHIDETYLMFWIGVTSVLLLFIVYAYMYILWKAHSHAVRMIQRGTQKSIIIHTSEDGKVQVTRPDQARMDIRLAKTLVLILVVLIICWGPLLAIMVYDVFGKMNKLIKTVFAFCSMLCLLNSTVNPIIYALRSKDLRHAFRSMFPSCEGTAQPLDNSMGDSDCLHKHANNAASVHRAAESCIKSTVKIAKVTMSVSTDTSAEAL

Compound | Ki (hCB1R [1]; [3]) [nM] | further results
CC1(C)C(=O)N(c2ccc(Oc3ccc(Cl)cc3)c(C(F)(F)F)c2)C(=O)N1Cc1ccccc1Cc1ccccc1 [Example 101, 1-(2-Benzylbenzyl)-3-[4-(4-chlorophenoxy)-3-trifluoromethylphenyl]-5,5-dimethylimidazolidine-2,4-dione] | 99 | 
CC1(C)C(=O)N(c2ccc(C#N)c(C(F)(F)F)c2)C(=O)N1Cc1ccc(C(=O)c2ccccc2)cc1 [Example 132, 4-[3-(4-benzoylbenzyl)-4,4-dimethyl-2,5-dioxo-imidazolidin-1-yl]-2-trifluoromethylbenzonitrile] |  | IC50 (hCB1R [2]; [4]): 103 nM; Ki (hCB1R [1]): 74 nM; IC50 (hCB2R): > 10000 nM
CC1(C)C(=O)N(c2cccc(C(F)(F)F)c2)C(=O)N1Cc1ccccc1Cc1ccccc1 [Example 7] | 95 | 
CC1(C)C(=O)N(c2ccc(C#N)c(C(F)(F)F)c2)C(=O)N1Cc1ccc(F)cc1C(=O)c1ccc(C(F)(F)F)cc1 [Example 155, 4-{3-[4-Fluoro-2-(4-trifluoromethylbenzoyl)-benzyl]-4,4-dimethyl-2,5-dioxoimidazolidin-1-yl}-2-trifluoromethylbenzonitrile] | 69 | 
CC1(C)C(=O)N(c2cccc(SC(F)(F)F)c2)C(=O)N1Cc1ccccc1Cc1ccccc1 [Example 13] | 66 | 
CC1(C)C(=O)N(c2cc(Cl)cc(Cl)c2)C(=O)N1Cc1ccccc1Cc1ccccc1 [Example 65] | 153 | 
CC1(C)C(=O)N(c2ccc(C#N)c(S(F)(F)(F)(F)F)c2)C(=O)N1Cc1ccccc1Cc1ccccc1 [Example 102, 4-[3-(2-Benzylbenzyl)-4,4-dimethyl-2,5-dioxo-imidazolidin-1-yl]-2-pentafluorosulfanyl-benzonitrile] | 19 | IC50 (hCB1R [2]): 45 nM
CC1(C)C(=O)N(c2ccc(C#N)c(C(F)(F)F)c2)C(=O)N1Cc1ccccc1Cc1ccccc1 [Example 88, 4-[3-(2-benzylbenzyl)-4,4-dimethyl-2,5-dioxoimidazolidin-1-yl]-2-trifluoromethylbenzonitrile] |  | IC50 (hCB1R [2]): 13 nM; Ki (hCB1R [1]): 2 nM; IC50 (hCB2R): > 30000 nM
CCc1cccc(N2C(=O)N(Cc3ccccc3Cc3ccccc3)C(C)(C)C2=O)c1 [Example 1, 1-(2-Benzylbenzyl)-3-(3-ethylphenyl)-5,5-dimethylimidazolidine-2,4-dione] | 218 | 
COC(=O)c1ccc(C(=O)c2ccc(CN3C(=O)N(c4ccc(F)c(C(F)(F)F)c4)C(=O)C3(C)C)cc2)cc1 [Example 151, Methyl 4-{4-[3-(4-fluoro-3-trifluoromethylphenyl)-5,5-dimethyl-2,4-dioxo-imidazolidin-1-ylmethyl]-benzoyl}benzoate] | 62 | 
COC(=O)c1ccc(Cc2ccccc2CN2C(=O)N(c3ccc(F)c(C(F)(F)F)c3)C(=O)C2(C)C)cc1 [Example 144, methyl 4-{2-[3-(4-fluoro-3-trifluoromethylphenyl)-5,5-dimethyl-2,4-dioxoimidazolidin-1-ylmethyl]benzyl}benzoate] | 37 | 
COC(=O)c1ccc(Cc2ccccc2CN2C(=O)N(c3ccc(C#N)c(C(F)(F)F)c3)C(=O)C2(C)C)cc1 [Example 143, methyl 4-{2-[3-(4-cyano-3-trifluoromethylphenyl)-5,5-dimethyl-2,4-dioxoimidazolidin-1-ylmethyl]benzyl}benzoate] | 13 | IC50 (hCB1R [2]): 65 nM
CC1(C)C(=O)N(c2cccc(C#N)c2)C(=O)N1Cc1ccccc1Cc1ccccc1 [Example 16] | 174 | 
N#Cc1ccc(N2C(=O)N(Cc3ccccc3Cc3ccccc3)C3(CCCCC3)C2=O)cc1C(F)(F)F [Example 114, 4-[1-(2-Benzylbenzyl)-2,4-dioxo-1,3-diazaspiro[4.5]dec-3-yl]-2-trifluoromethylbenzonitrile] | 63 | 
CC1(C)C(=O)N(c2ccnc(Cl)c2)C(=O)N1Cc1ccccc1Cc1ccccc1 [Example 117, 1-(2-Benzylbenzyl)-3-(2-chloropyridin-4-yl)-5,5-dimethylimidazolidine-2,4-dione] | 94 | 
CC1(C)C(=O)N(c2ccc(C#N)nc2)C(=O)N1Cc1ccccc1Cc1ccccc1 [Example 123, 543-(2-Benzylbenzyl)-4,4-dimethyl-2,5-dioxo-imidazolidin-1-yl]pyridine-2-carbonitrile; hydrochloride] | 140 | 
CC1(C)C(=O)N(c2ccc(C#N)c(C(F)(F)F)c2)C(=O)N1Cc1ccc(F)cc1C(=O)c1ccc(C#N)cc1 [Example 150, 4-{3-[2-(4-Cyano-benzoyl)-4-fluorobenzyl]-4,4-dimethyl-2,5-dioxo-imidazolidin-1-yl}-2-tri-fluoromethylbenzonitrile] | 18 | IC50 (hCB1R [2]): 11 nM
CC1(C)C(=O)N(c2ccc(F)c(F)c2)C(=O)N1Cc1ccccc1Cc1ccccc1 [Example 41] | 188 | 
CC1(C)C(=O)N(c2ccc(C#N)c(C(F)(F)F)c2)C(=O)N1Cc1ccc(F)cc1C(=O)c1ccc(Cl)cc1 [Example 139, 4-{3-[2-(4-Chloro-benzoyl)-4-fluorobenzyl]-4,4-dimethyl-2,5-dioxo-imidazolidin-1-yl}-2-trifluoromethylbenzonitrile] | 77 | 
CC1(C)C(=O)N(c2ccc(F)c(C(F)(F)F)c2)C(=O)N1Cc1ccccc1Cc1ccccc1 [Example 79] |  | IC50 (hCB1R [2]; [4]): 103 nM; Ki (hCB1R [1]): 44 nM; IC50 (hCB2R): > 10000 nM
CC(C)(C)c1cc(N2C(=O)N(Cc3ccccc3Cc3ccccc3)C(C)(C)C2=O)ccc1C#N [Example 118, 4-[3-(2-Benzylbenzyl)-4,4-dimethyl-2,5-dioxo-imidazolidin-1-yl]-2-tert-butylbenzonitrile] |  | IC50 (hCB1R [2]; [4]): 114 nM; Ki (hCB1R [1]): 5 nM; IC50 (hCB2R): > 10000 nM
CC1(C)C(=O)N(c2ccc(Cl)c(Cl)c2)C(=O)N1Cc1ccccc1Cc1ccccc1 [Example 64] | 97 | 
N#Cc1ccc(N2C(=O)N(Cc3ccccc3Cc3ccccc3)C3(CCCC3)C2=O)cc1C(F)(F)F [Example 106, 4-[1-(2-Benzylbenzyl)-2,4-dioxo-1,3-diazaspiro[4.4]-non-3-yl]-2-trifluoro-methylbenzonitrile] |  | IC50 (hCB1R [2]): 76 nM; Ki (hCB1R [1]): 11 nM; IC50 (hCB2R): > 10000 nM
N#Cc1ccc(N2C(=O)N(Cc3ccccc3Cc3ccccc3)C3(CCC3)C2=O)cc1C(F)(F)F [Example 107, 4-[5-(2-Benzylbenzyl)-6,8-dioxo-5,7-diazaspiro[3.4]-oct-7-yl]-2-trifluoro-methylbenzonitrile] |  | IC50 (hCB1R [2]): 43 nM; Ki (hCB1R [1]): 12 nM; IC50 (hCB2R): > 10000 nM
CN1CCC2(CC1)C(=O)N(c1ccc(C#N)c(C(F)(F)F)c1)C(=O)N2Cc1ccccc1Cc1ccccc1 [Example 111, 4-[1-(2-Benzylbenzyl)-8-methyl-2,4-dioxo-1,3,8-triazaspiro[4.5]dec-3-yl]-2-trifluoromethylbenzo-nitrile; trifluoroacetate] | 61 | 
N#Cc1ccc(N2C(=O)N(Cc3ccccc3Cc3ccccc3)C3(CCCCCC3)C2=O)cc1C(F)(F)F [Example 116, 4-[1-(2-Benzylbenzyl)-2,4-dioxo-1,3-diazaspiro[4.6]undec-3-yl]-2-trifluoromethylbenzonitrile] | 26 | 
CC1(C)C(=O)N(c2cc(C(F)(F)F)ccc2F)C(=O)N1Cc1ccccc1Cc1ccccc1 [Example 11] | 132 | 
CSc1cccc(N2C(=O)N(Cc3ccccc3Cc3ccccc3)C(C)(C)C2=O)c1 [Example 4] | 217 | 
CC1(C)C(=O)N(c2ccnc(C(F)(F)F)c2)C(=O)N1Cc1ccccc1Cc1ccccc1 [Example 119, 1-(2-Benzylbenzyl)-5,5-dimethyl-3-(2-trifluoromethylpyridin-4-yl)imidazolidine-2,4-dione; hydrochloride] | 23 | IC50 (hCB1R [2]): 97 nM
